From patent US8415378B2, “Isoxazol-3(2H)-one analogs as therapeutic agents” (AstraZeneca AB, priority 2009, dated 2013)

Biological target: T1, human Glu-plasminogen (Homo sapiens, UniProt P00747)
T1 construct: human Glu-plasminogen; purchased Chromogenix, Italy
Assay: Clot-lysis buffer assay
Assay type: biochemical
Experimental: The assay method used for evaluating biological activity of the compounds according to the invention was Clot-lysis buffer assay.
Tested substance were added to the reaction mixture in 10% DMSO. Reaction was started by the addition of thrombin.
Measured according to the Clot-lysis buffer assay described above.

T1 sequence (P00747 20-810 limits assumed): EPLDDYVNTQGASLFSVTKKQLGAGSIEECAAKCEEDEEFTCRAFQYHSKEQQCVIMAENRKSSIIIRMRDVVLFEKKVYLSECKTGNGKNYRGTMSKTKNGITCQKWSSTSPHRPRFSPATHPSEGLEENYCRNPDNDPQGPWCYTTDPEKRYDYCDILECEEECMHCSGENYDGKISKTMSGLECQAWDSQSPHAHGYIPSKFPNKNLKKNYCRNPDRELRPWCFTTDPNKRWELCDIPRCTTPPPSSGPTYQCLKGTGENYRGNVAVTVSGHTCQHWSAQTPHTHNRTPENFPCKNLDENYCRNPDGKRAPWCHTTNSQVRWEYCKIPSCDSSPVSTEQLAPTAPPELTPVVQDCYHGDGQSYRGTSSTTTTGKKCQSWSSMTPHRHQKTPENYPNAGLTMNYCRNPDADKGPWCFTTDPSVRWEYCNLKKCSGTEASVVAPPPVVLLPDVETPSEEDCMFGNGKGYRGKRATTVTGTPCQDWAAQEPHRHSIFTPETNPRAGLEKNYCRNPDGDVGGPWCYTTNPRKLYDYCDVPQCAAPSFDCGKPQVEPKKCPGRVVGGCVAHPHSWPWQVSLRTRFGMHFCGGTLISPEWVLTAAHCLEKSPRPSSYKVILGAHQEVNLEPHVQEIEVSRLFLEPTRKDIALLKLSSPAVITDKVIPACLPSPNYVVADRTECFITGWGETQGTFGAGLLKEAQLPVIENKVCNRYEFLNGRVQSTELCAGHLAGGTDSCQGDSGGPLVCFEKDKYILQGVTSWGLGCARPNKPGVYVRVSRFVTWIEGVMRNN

In order of falling IC50:
1. O=c1cc([C@@H]2CCN[C@@H](c3ccc(Cl)cc3F)C2)o[nH]1 (relative stereo) [Example 46, 5-(Trans-2-(4-chloro-2-fluorophenyl)piperidin-4-yl)isoxazol-3(2H)-one]  90.7 µM
2. Cc1cc([C@@H]2C[C@H](c3cc(=O)[nH]o3)CCN2)ccc1C(F)(F)F [Example 68, 5-((2S,4R)-2-(3-Methyl-4-(trifluoromethyl)phenyl)piperidin-4-yl)isoxazol-3(2H)-one]  81.1 µM
3. O=c1cc([C@H]2CCN[C@H](C3CCCCC3)C2)o[nH]1 [Example 80, 5-((2S,4S)-2-Cyclohexylpiperidin-4-yl)isoxazol-3(2H)-one]  44 µM
4. O=c1cc([C@@H]2CCN[C@@H](c3ccc(F)c(F)c3)C2)o[nH]1 (relative stereo) [Example 24, 5-(Trans-2-(3,4-difluorophenyl)piperidin-4-yl)isoxazol-3(2H)-one]  42.8 µM
5. Cn1nnnc1[C@H]1C[C@@H](c2cc(=O)[nH]o2)CCN1 [Example 83, 5-((2R,4S)-2-(1-Methyl-1H-tetrazol-5-yl)piperidin-4-yl)isoxazol-3(2H)-one]  42 µM
6. O=c1cc([C@@H]2CCN[C@H](Cc3c(F)cccc3F)C2)o[nH]1 [Example 128, 5-((2S,4R)-2-(2,6-Difluorobenzyl)piperidin-4-yl)isoxazol-3(2H)-one]  31.4 µM
7. O=c1cc([C@@H]2CCN[C@@H](C(F)F)C2)o[nH]1 (relative stereo) [Example 88, 5-(Trans-2-(difluoromethyl)piperidin-4-yl)isoxazol-3(2H)-one]  31.2 µM
8. O=c1cc([C@H]2CCN[C@@H](C(F)F)C2)o[nH]1 [Example 87, 5-((2R,4S)-2-(Difluoromethyl)piperidin-4-yl)isoxazol-3(2H)-one]  10.7 µM
9. O=c1cc([C@@H]2CCN[C@@H](Cc3c(F)cccc3F)C2)o[nH]1 (relative stereo) [Example 129, 5-(Trans-2-(2,6-difluorobenzyl)piperidin-4-yl)isoxazol-3(2H)-one]  10.2 µM
10. O=c1cc([C@@H]2CCN[C@@H](c3cc(F)c(Cl)c(F)c3)C2)o[nH]1 (relative stereo) [Example 66, 5-(Trans-2-(4-chloro-3,5-difluorophenyl)piperidin-4-yl)isoxazol-3(2H)-one]  7.5 µM
11. O=c1cc([C@@H]2CCN[C@@H](Cc3ccccc3C(F)(F)F)C2)o[nH]1 (relative stereo) [Example 112, 5-(Trans-2-(2-(trifluoromethyl)benzyl)piperidin-4-yl)isoxazol-3(2H)-one]  5.5 µM
12. CC(C)(C)c1ccc(C[C@H]2C[C@@H](c3cc(=O)[nH]o3)CCN2)cc1 [Example 12, 5-((2R,4S)-2-(4-tert-Butylbenzyl)piperidin-4-yl)isoxazol-3(2H)-one]  2.25 µM
13. O=c1cc([C@H]2CCN[C@H](Cc3cc(F)cc(F)c3)C2)o[nH]1 [Example 132, 5-((2S,4S)-2-(3,5-Difluorobenzyl)piperidin-4-yl)isoxazol-3(2H)-one]  2.2 µM
14. O=c1cc([C@H]2CCN[C@@H](c3cc(F)c(F)c(F)c3)C2)o[nH]1 [Example 60, 5-((2R,4S)-2-(3,4,5-Trifluorophenyl)piperidin-4-yl)isoxazol-3(2H)-one]  1.9 µM
15. CC(C)(C[C@H]1C[C@@H](c2cc(=O)[nH]o2)CCN1)c1ccccc1 [Example 19, 5-((2R,4S)-2-(2-Methyl-2-phenylpropyl)piperidin-4-yl)isoxazol-3(2H)-one]  1.6 µM
16. CS(=O)(=O)c1ccc([C@H]2C[C@@H](c3cc(=O)[nH]o3)CCN2)cc1 [Example 38, 5-((2R,4S)-2-(4-(Methylsulfonyl)phenyl)piperidin-4-yl)isoxazol-3(2H)-one]  1.5 µM
17. Cc1cc(C(F)(F)F)ccc1[C@H]1C[C@@H](c2cc(=O)[nH]o2)CCN1 [Example 72, 5-((2R,4S)-2-(2-Methyl-4-(trifluoromethyl)phenyl)piperidin-4-yl)isoxazol-3(2H)-one]  0.6 µM
